Values quoted from earlier work in patent publication US8674081B2, “Methods and compositions to elicit multivalent immune responses against dominant and subdominant epitopes, expressed on cancer cells and tumor stroma” (Mankind Corporation, priority 2005, dated 2014).

Experiments:
[1] = system: MHC class I; settings: stated as 'has been shown'
[2] = system: human PBMC; settings: stated as 'has been shown'
[3] = stated as 'has been shown'

MHC class I binding relative to native epitope [1] | Sequence | CTL / anti-tumor immune response, in vitro immunization of human PBMC [2] | CTL / anti-tumor immune response, in vivo immunization in mice [3]
elevated | GLPSIPVHPV [PSMA288-297 I297V] | significant CTL responses | significant CTL responses
– | GLPSIPVHPI (listed as Homo sapiens) [PSMA288-297] | significant CTL responses | significant CTL responses
– | SLLQHLIGL [PRAME425-433] | strong anti-tumor immune responses | strong anti-tumor immune responses
